Entries after “also recorded” stand apart in the source; their conditions may differ. Where two headings read alike, the source gives them in different places.
Tests used:
[1] = biological target: apoenzyme of methylmalonyl-CoA mutase (Propionibacterium freudenreichii subsp. shermanii, UniProt P11653); settings: cited from earlier work
[2] = test system: Chinese hamster cells (cytochrome c oxidase); type: cell-based
D. melanogaster [3] = settings: in vivo
[4] = test system: VASP phosphorylation in rat C6 glioma cells; type: cell-based
[5] = test system: Malpighian tubules of D. melanogaster; type: cell-based
[6] = test system: Malpighian tubules of D. melanogaster; type: cell-based; remark: listed apart in the source
D. melanogaster [7] = settings: in vivo; remark: listed apart in the source
D. melanogaster [8] = settings: in vivo; remark: listed apart in the source
[9] = human, in vivo, iv; cited from earlier work
methylmalonyl-CoA mutase [10] = type: cell-based, baby hamster
methionine synthase [11] = type: cell-based, baby hamster
[12] = test system: NO (nitrite plus nitrate), C6 cells; type: cell-based, rat
transcobalamin II = settings: cited from earlier work
[13] = test system: human monocytes and lymphocytes; settings: cited from earlier work
baby chicks = settings: in vivo, cited from earlier work
[14] = test system: NO (nitrite plus nitrate), CS-54 cells; type: cell-based, rat
methionine synthase [15] = type: biochemical, baby hamster
[16] = test system: BHK, CS-54, and C6 cells, human foreskin fibroblasts and HUVECs
[17] = test system: Malpighian tubules of D. melanogaster; settings: in vivo
[18] = test system: VASP phosphorylation in CS-54 vascular smooth muscle cells; type: cell-based, rat
[19] = biological target: methionine synthase apoenzyme (Homo sapiens, UniProt Q99707); settings: cited from earlier work
Sequence of methionine synthase apoenzyme (Q99707 whole entry): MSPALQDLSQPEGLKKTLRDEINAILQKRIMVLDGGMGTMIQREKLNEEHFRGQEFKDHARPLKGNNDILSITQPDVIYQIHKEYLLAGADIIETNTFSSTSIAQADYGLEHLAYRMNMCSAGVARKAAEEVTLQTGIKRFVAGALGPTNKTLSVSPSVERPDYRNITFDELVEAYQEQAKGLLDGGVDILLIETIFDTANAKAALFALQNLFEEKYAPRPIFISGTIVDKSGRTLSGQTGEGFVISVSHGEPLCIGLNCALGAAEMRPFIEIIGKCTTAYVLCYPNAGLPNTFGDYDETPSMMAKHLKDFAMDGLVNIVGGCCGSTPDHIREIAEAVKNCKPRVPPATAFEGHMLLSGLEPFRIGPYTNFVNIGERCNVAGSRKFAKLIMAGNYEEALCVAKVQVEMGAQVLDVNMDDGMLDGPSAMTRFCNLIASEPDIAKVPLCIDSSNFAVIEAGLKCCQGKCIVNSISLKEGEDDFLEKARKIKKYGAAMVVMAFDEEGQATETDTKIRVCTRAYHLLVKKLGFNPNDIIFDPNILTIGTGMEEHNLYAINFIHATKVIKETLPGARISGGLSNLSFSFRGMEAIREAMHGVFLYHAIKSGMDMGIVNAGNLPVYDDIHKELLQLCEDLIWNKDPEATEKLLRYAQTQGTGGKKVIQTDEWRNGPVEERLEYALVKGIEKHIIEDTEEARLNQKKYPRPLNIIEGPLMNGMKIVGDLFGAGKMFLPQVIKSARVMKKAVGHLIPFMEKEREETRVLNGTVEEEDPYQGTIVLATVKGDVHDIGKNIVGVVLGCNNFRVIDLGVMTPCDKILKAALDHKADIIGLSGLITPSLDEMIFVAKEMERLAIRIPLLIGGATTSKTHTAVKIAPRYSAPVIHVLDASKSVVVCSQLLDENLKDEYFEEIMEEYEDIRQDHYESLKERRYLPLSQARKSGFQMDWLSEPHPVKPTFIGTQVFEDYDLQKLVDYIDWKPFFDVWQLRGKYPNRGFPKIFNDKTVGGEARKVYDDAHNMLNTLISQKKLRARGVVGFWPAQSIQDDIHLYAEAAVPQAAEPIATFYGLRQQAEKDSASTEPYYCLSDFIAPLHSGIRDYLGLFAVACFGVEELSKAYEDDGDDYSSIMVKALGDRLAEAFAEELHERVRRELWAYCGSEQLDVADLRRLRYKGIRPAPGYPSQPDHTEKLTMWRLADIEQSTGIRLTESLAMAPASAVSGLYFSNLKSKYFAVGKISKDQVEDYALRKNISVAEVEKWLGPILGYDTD

[20] = pig, in vivo; cited from earlier work
haptocorrin = haptocorrin (Homo sapiens, UniProt P20061); settings: cited from earlier work
Sequence of haptocorrin (P20061 24-433): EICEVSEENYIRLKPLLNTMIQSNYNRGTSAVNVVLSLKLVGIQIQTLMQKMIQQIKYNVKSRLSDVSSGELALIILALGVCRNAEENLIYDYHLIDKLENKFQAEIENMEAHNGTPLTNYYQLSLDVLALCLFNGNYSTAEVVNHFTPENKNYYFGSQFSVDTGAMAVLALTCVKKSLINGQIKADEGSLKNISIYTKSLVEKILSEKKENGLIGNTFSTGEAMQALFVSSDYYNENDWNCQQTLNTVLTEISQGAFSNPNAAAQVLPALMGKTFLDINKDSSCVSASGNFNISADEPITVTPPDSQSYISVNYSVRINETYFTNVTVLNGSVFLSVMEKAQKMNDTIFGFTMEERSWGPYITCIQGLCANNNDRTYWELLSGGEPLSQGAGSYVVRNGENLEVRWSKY

rats = settings: rat, in vivo, sc; cited from earlier work
mouse leukemic cells = settings: cited from earlier work
[21] = test system: NO (nitrite and nitrate) in Malpighian tubule medium; type: cell-based, D. melanogaster
[22] = test system: BHK, CS-54, and C6 cells, human foreskin fibroblasts and HUVECs; settings: cited from earlier work
[23] = rabbit, in vivo, cited from earlier work
Chinese hamster cells = type: cell-based
methylmalonyl-CoA mutase [24] = type: biochemical, baby hamster

Sequence of apoenzyme of methylmalonyl-CoA mutase (P11652 2-638): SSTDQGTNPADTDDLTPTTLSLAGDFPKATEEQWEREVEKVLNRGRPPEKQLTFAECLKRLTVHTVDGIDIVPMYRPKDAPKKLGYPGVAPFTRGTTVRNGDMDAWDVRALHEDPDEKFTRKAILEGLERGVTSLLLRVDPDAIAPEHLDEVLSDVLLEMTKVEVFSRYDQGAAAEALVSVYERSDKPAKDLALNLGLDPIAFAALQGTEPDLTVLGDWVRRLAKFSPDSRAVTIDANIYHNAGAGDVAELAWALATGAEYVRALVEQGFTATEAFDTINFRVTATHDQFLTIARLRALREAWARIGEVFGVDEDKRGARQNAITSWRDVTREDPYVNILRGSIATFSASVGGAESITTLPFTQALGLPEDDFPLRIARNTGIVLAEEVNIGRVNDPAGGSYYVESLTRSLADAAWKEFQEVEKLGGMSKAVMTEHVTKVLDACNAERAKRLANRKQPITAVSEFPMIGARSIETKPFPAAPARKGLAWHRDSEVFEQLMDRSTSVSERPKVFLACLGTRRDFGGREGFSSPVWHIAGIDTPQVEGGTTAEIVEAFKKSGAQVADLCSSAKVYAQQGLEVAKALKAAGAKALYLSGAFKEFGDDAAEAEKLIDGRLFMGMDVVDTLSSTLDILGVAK
Sequence of apoenzyme of methylmalonyl-CoA mutase (P11653 2-728): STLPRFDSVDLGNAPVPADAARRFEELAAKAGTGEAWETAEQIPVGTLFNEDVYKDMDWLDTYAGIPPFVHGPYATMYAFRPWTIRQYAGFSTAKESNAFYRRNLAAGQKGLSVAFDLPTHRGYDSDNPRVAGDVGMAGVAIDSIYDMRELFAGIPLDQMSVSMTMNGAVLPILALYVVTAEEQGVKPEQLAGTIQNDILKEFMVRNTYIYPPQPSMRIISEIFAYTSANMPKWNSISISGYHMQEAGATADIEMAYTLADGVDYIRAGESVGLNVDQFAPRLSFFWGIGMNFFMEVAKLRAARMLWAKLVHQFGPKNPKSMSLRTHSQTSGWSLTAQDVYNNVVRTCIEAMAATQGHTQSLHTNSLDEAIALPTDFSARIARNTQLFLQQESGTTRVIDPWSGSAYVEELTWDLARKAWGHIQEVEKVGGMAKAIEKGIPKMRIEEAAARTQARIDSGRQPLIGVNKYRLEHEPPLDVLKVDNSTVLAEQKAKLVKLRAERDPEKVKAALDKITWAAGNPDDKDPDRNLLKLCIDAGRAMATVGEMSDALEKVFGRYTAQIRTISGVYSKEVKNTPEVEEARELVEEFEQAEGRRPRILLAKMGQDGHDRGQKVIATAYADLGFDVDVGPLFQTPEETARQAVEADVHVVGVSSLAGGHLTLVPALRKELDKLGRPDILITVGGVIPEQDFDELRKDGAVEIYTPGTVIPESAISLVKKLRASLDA

5′-deoxyadenosyl-cobinamide
restoring function to the apoenzyme of methylmalonyl-CoA mutase [1]: inactive

C/C1=C2/[N-][C@H]([C@H](CC(N)=O)[C@@]2(C)CCC(=O)NC[C@H](C)OP(=O)([O-])O[C@H]2[C@@H](O)[C@@H](n3cnc4cc(C)c(C)cc43)O[C@@H]2CO)[C@]2(C)N=C(/C(C)=C3N=C(/C=C4N=C1[C@@H](CCC(N)=O)C\4(C)C)[C@@H](CCC(N)=O)[C@]\3(C)CC(N)=O)[C@@H](CCC(N)=O)[C@]2(C)CC(N)=O.[Co+2] (stereo in doubt) [cobalamin, reference compound]
effect on oxygen consumption [2]: Neither cobinamide nor cobalamin alone had any effect on oxygen consumption
recovery of respiration, of control non-KCN-treated cells [2]: 42%
flies salvaged (D. melanogaster [3]): 62%
flies survived (D. melanogaster [3]): 44%
mortality rate (D. melanogaster [3]): 55%
effect on NO scavenging by cobinamide, VASP phosphorylation [4]: no effect on NO scavenging by cobinamide
effect on NO scavenging by cobinamide, tubular fluid secretion [5]: no effect on NO scavenging by cobinamide
basal secretion rates [6]: no effect on basal secretion rates
resistance to KCN inhibition of tubular secretion [6]: significant resistance to the inhibitory effect of KCN; also recorded: intermediate degree of resistance to KCN
toxicity to flies (D. melanogaster [7]): No toxicity
survival rate (D. melanogaster [8]): 38%
mean peak serum concentration [9]: about 650 μM
prevention of cobinamide effect on [14C]-propionic acid incorporation (methylmalonyl-CoA mutase [10]): completely prevented
prevention of cobinamide effect on [14C]-formate incorporation (methionine synthase [11]): completely prevented

C/C1=C2/[N-][C@H]([C@H](CC(N)=O)[C@@]2(C)CCC(=O)NC[C@@H](C)O)[C@]2(C)N=C(/C(C)=C3N=C(/C=C4N=C1[C@@H](CCC(N)=O)C\4(C)C)[C@@H](CCC(N)=O)[C@]\3(C)CC(N)=O)[C@@H](CCC(N)=O)[C@]2(C)CC(N)=O.[Co+3] [cobinamide]
nitrite plus nitrate concentrations in medium [12]: significant decrease in the nitrite plus nitrate concentrations
effect on oxygen consumption [2]: Neither cobinamide nor cobalamin alone had any effect on oxygen consumption
recovery of respiration, of control non-KCN-treated cells [2]: about 75%
binding to transcobalamin II (transcobalamin II): binds poorly
growth inhibitory effects [13]: no growth inhibitory effects
growth of baby chicks (baby chicks; po): did inhibit chick growth
growth of baby chicks (baby chicks): no effect on the growth of baby chicks
nitrite plus nitrate concentrations in medium [14]: significant decrease in the nitrite plus nitrate concentrations
binding to serum albumin (serum albumin): binds tightly to serum albumin
HCN exposure time without any significant increase in mortality (D. melanogaster [3]): up to 15 min
flies salvaged (D. melanogaster [3]): 94%
flies survived (D. melanogaster [3]): 65%
flies surviving / recovered by 1 h (D. melanogaster [3]): approximately 90%
mortality rate (D. melanogaster [3]): 18%
outcome of prolonged HCN exposure (D. melanogaster [3]): death of all flies
prevention of death (D. melanogaster [3]): as effective in preventing death under these conditions as it was when administered prior to cyanide exposure
methionine synthase activity in BHK cell extracts (methionine synthase [15]): no effect
8-pCPT-cGMP-induced VASP phosphorylation [4]: no effect
PAPA-NONOate-induced VASP phosphorylation [4]: prevented the increase in VASP phosphorylation; also recorded: prevented increases in VASP phosphorylation
rate of tubular secretion [5]: rapidly reduced tubular secretion, returning rates near to the basal state
concentration at which toxicity began to be observed [16]: about 50 μM
reduction of LPS-stimulated tubular secretion rates compared to control flies [17]: about 50%
basal secretion rates [6]: no effect on basal secretion rates
resistance to KCN inhibition of tubular secretion [6]: significant resistance to the inhibitory effect of KCN; also recorded: almost complete reversal of the toxic effects of KCN
tubular secretion rates [6]: tubular secretion rates increased significantly
detrimental effect on the flies (D. melanogaster [7]): no apparent detrimental effect
toxicity to flies (D. melanogaster [7]): No toxicity
A23187-induced VASP phosphorylation [18]: significantly attenuated this effect
survival rate (D. melanogaster [8]): 65%
restoration of methionine synthase apoenzyme activity [19]: can restore the methionine synthase apoenzyme to full activity
absorption across the ileum [20]: can be absorbed across the ileum independently of intrinsic factor
binding to haptocorrin (haptocorrin): binds tightly
inhibition of methionine synthase or methylmalonyl-CoA mutase (rats): nor did cobinamide inhibit the two mammalian cobalamin-dependent enzymes
toxic effects (rats): no apparent toxic effects
decrease of [14C]-propionic acid incorporation into protein (methylmalonyl-CoA mutase [10]): about 50%
growth inhibitory effects (mouse leukemic cells): no growth inhibitory effects
reduction of combined nitrite and nitrate [21]: about 50%
decrease of [14C]-formate incorporation into purine nucleotides (methionine synthase [11]): about 50%
inhibition of in vivo methionine synthase activity (methionine synthase [11]): minimal inhibition
not toxic to cultured mammalian cells up to [22]: at least 50 μM
release from the liver, t? ([23]; iv): ~150 h
liver retention [23]: retained more by the liver than cobalamin
growth rate of KCN-treated cells (Chinese hamster cells): restored their growth rate to normal
methylmalonyl-CoA mutase activity in BHK cell extracts (methylmalonyl-CoA mutase [24]): no effect
